According to patent publication US7696129B2, “Substituted aromatic amide derivative, intermediate thereof, agrohorticultural insecticide containing thereof and method for the use thereof” (Nihon Nohyaku Co., Ltd., priority 2001, dated 2010):

Assays:
Type in all cases: in vivo
[1] = test system: Diamond Back Moth (Plutella xylostella); experiment: Test Example 1: insecticidal effect on diamond back moth, immersion of Chinese cabbage seedling with eggs; conditions: 50 ppm, seedling with eggs immersed about 30 seconds, 25° C., six days after the immersion
Excerpt: Insecticidal Effect on Diamond Back Moth (Plutella xylostella)
Adult diamond back moths were released and allowed to oviposit on a Chinese cabbage seedling. Two days after the release, the seedling having the eggs deposited thereon was immersed for about 30 seconds in a liquid chemical prepared by diluting a preparation containing each compound listed in Tables 4 to 9 as an active ingredient to adjust the concentration to 50 ppm. After air-dryness, it was allowed to stand in a room thermostatted at 25° C. Six days after the immersion, the hatched insects were counted. The mortality was calculated according to the following equation and the insecticidal effect was judged according to the criterion shown below. The test was carried out with triplicate groups of 10 insects.

[2] = test system: Common Cutworm (Spodoptera litura); experiment: Test Example 2: insecticidal effect on common cutworm, cabbage leaf immersion; conditions: 50 ppm, cabbage leaf immersed about 30 seconds, second-instar larvae, 25° C., eight days after the inoculation
Excerpt: Insecticidal Effect on Common Cutworm (Spodoptera litura)
A piece of cabbage leaf (cultivar; Shikidori) was immersed for about 30 seconds in a liquid chemical prepared by diluting a preparation containing each compound listed in Tables 4 to 9 as an active ingredient to adjust the concentration to 50 ppm. After air-dryness, it was placed in a plastic Petri dish with a diameter of 9 cm and inoculated with second-instar larvae of common cutworm, after which the dish was closed and then allowed to stand in a room thermostatted at 25° C. Eight days after the inoculation, the dead and alive were counted. The mortality was calculated according to the following equation and the insecticidal effect was judged according to the criterion shown in Test Example 1. The test was carried out with triplicate groups of 10 insects.

[3] = test system: Smaller Tea Tortrix (Adxophyes sp.); experiment: Test Example 3: insecticidal effect on smaller tea tortrix, tea leaf immersion; conditions: 50 ppm, tea leaves immersed about 30 seconds, larvae, 25° C., humidity 70%, eight days after the inoculation
Method: Insecticidal Effect on Smaller Tea Tortrix (Adxophyes sp.)
Tea leaves were immersed for about 30 seconds in a liquid chemical prepared by diluting a preparation containing each compound listed in Tables 1 to 3 as an active ingredient to adjust the concentration to 50 ppm. After air-dryness, the tea leaves were placed in a plastic Petri dish with a diameter of 9 cm and inoculated with larvae of smaller tea tortrix, after which the dish was allowed to stand in a room thermostatted at 25° C. and having a humidity of 70%. Eight days after the inoculation, the dead and alive were counted and the insecticidal effect was judged according to the criterion shown in Test Example 1. The test was carried out with triplicate groups of 10 insects.

| Structure (SMILES) | Test Example 1 (insecticidal effect, mortality criterion) [1] | Test Example 2 (insecticidal effect, mortality criterion) [2] | Test Example 3 (insecticidal effect, mortality criterion) [3] |
| --- | --- | --- | --- |
| Cc1cc(C(C(F)(F)F)C(F)(F)F)ccc1NC(=O)c1cccc(I)c1C(=O)NC(C)(C)CO [5-27] | A (Mortality 100%) | E (Mortality 49% or less) | E (Mortality 49% or less) |
| Cc1cc(C(C(F)(F)F)C(F)(F)F)ccc1NC(=O)c1cccc(I)c1C(=O)NC(C)COC(=O)N(C)Cc1ccccc1 (stereo not drawn) [5-31] | A (Mortality 100%) | A (Mortality 100%) | A (Mortality 100%) |
| CCNC(=O)OCC(C)NC(=O)c1c(I)cccc1C(=O)Nc1ccc(C(C(F)(F)F)C(F)(F)F)cc1C (stereo not drawn) [5-32] | A (Mortality 100%) | A (Mortality 100%) | A (Mortality 100%) |
| Cc1cc(C(C(F)(F)F)C(F)(F)F)ccc1NC(=O)c1cccc(I)c1C(=O)NC(C)COC(=O)NCc1ccccc1 (stereo not drawn) [5-33] | A (Mortality 100%) | A (Mortality 100%) | A (Mortality 100%) |
| Cc1ccccc1CNC(=O)OCC(C)NC(=O)c1c(I)cccc1C(=O)Nc1ccc(C(C(F)(F)F)C(F)(F)F)cc1C (stereo not drawn) [5-34] | A (Mortality 100%) | A (Mortality 100%) | A (Mortality 100%) |
| Cc1cc(C(C(F)(F)F)C(F)(F)F)ccc1NC(=O)c1cccc(I)c1C(=O)NC(C)COC(=O)NCc1ccc(C(F)(F)F)cc1 (stereo not drawn) [5-35] | A (Mortality 100%) | A (Mortality 100%) | A (Mortality 100%) |
| Cc1ccc(CNC(=O)OCC(C)NC(=O)c2c(I)cccc2C(=O)Nc2ccc(C(C(F)(F)F)C(F)(F)F)cc2C)cc1 (stereo not drawn) [5-36] | A (Mortality 100%) | E (Mortality 49% or less) | A (Mortality 100%) |
| Cc1cc(C(C(F)(F)F)C(F)(F)F)ccc1NC(=O)c1cccc(I)c1C(=O)NC(C)COC(=O)NCc1ccc(Cl)cc1 (stereo not drawn) [5-37] | A (Mortality 100%) | A (Mortality 100%) | A (Mortality 100%) |
| COc1ccc(CNC(=O)OCC(C)NC(=O)c2c(I)cccc2C(=O)Nc2ccc(C(C(F)(F)F)C(F)(F)F)cc2C)cc1 (stereo not drawn) [5-38] | A (Mortality 100%) | A (Mortality 100%) | A (Mortality 100%) |
| CSCC(C)NC(=O)c1c(I)cccc1C(=O)Nc1ccc(C(C(F)(F)F)C(F)(F)F)cc1C (stereo not drawn) [5-39] | A (Mortality 100%) | A (Mortality 100%) | A (Mortality 100%) |
| CC(=O)NCC(C)(C)NC(=O)c1c(I)cccc1C(=O)Nc1ccc(C(C(F)(F)F)C(F)(F)F)cc1C [5-40] | A (Mortality 100%) | A (Mortality 100%) | A (Mortality 100%) |
| CSCC(C)(C)NC(=O)c1c(C(=O)Nc2ccc(C(C(F)(F)F)C(F)(F)F)cc2C)cccc1C(F)(F)F [5-41] | A (Mortality 100%) | A (Mortality 100%) | A (Mortality 100%) |
| Cc1cc(C(C(F)(F)F)C(F)(F)F)ccc1NC(=O)c1cccc(C(F)(F)F)c1C(=O)NC(C)(C)C[S+](C)[O-] (stereo not drawn) [5-42] | A (Mortality 100%) | A (Mortality 100%) | A (Mortality 100%) |
| Cc1cc(C(C(F)(F)F)C(F)(F)F)ccc1NC(=O)c1cccc(C(F)(F)F)c1C(=O)NC(C)(C)CS(C)(=O)=O [5-43] | A (Mortality 100%) | A (Mortality 100%) | A (Mortality 100%) |
| CCN(CC)C(=O)OCC(C)NC(=O)c1c(C(=O)Nc2ccc(C(C(F)(F)F)C(F)(F)F)cc2C)cccc1C(F)(F)F (stereo not drawn) [5-44] | A (Mortality 100%) | A (Mortality 100%) | A (Mortality 100%) |
| CSCC(C)(C)NC(=O)c1c(C(=O)Nc2ccc(C(C(F)(F)F)C(F)(F)F)cc2C)ccc(Cl)c1Cl [5-45] | A (Mortality 100%) | A (Mortality 100%) | A (Mortality 100%) |
| CCc1cc(C(C(F)(F)F)C(F)(F)F)ccc1NC(=O)c1cccc(I)c1C(=O)NC(C)C [5-46] | A (Mortality 100%) | A (Mortality 100%) | A (Mortality 100%) |
| CCc1cc(C(C(F)(F)F)C(F)(F)F)ccc1NC(=O)c1cccc(I)c1C(=O)NC(C)(C)CSC [5-47] | A (Mortality 100%) | A (Mortality 100%) | A (Mortality 100%) |
| CSCC(C)(C)NC(=O)c1c(I)cccc1C(=O)Nc1ccc(C(C(F)(F)F)C(F)(F)F)cc1C(C)(C)C [5-48] | A (Mortality 100%) | E (Mortality 49% or less) | E (Mortality 49% or less) |
| C[S+]([O-])CC(C)(C)NC(=O)c1c(I)cccc1C(=O)Nc1ccc(C(C(F)(F)F)C(F)(F)F)cc1C(C)(C)C (stereo not drawn) [5-49] | A (Mortality 100%) | E (Mortality 49% or less) | E (Mortality 49% or less) |
| CC(C)NC(=O)c1c(I)cccc1C(=O)Nc1ccc(C(C(F)(F)F)C(F)(F)F)cc1F [5-50] | A (Mortality 100%) | A (Mortality 100%) | A (Mortality 100%) |
| CC(C)NC(=O)c1c(I)cccc1C(=O)Nc1ccc(C(C(F)(F)F)C(F)(F)F)cc1Cl [5-51] | A (Mortality 100%) | A (Mortality 100%) | A (Mortality 100%) |
| CSCC(C)(C)NC(=O)c1c(I)cccc1C(=O)Nc1ccc(C(C(F)(F)F)C(F)(F)F)cc1Cl [5-52] | A (Mortality 100%) | A (Mortality 100%) | A (Mortality 100%) |
| CSCC(C)(C)NC(=O)c1c(I)cccc1C(=O)Nc1ccc(C(C(F)(F)F)C(F)(F)F)cc1Br [5-53] | A (Mortality 100%) | A (Mortality 100%) | A (Mortality 100%) |
| C[S+]([O-])CC(C)(C)NC(=O)c1c(I)cccc1C(=O)Nc1ccc(C(C(F)(F)F)C(F)(F)F)cc1Br (stereo not drawn) [5-54] | A (Mortality 100%) | A (Mortality 100%) | A (Mortality 100%) |
| CSCC(C)(C)NC(=O)c1c(I)cccc1C(=O)Nc1ccc(C(C(F)(F)F)C(F)(F)F)cc1I [5-55] | A (Mortality 100%) | A (Mortality 100%) | A (Mortality 100%) |
| C[S+]([O-])CC(C)(C)NC(=O)c1c(I)cccc1C(=O)Nc1ccc(C(C(F)(F)F)C(F)(F)F)cc1I (stereo not drawn) [5-56] | A (Mortality 100%) | C (Mortality 89-80%) | A (Mortality 100%) |
| CSCC(C)(C)NC(=O)c1c(I)cccc1C(=O)Nc1ccc(C(C(F)(F)F)C(F)(F)F)cc1C#N [5-57] | A (Mortality 100%) | A (Mortality 100%) | A (Mortality 100%) |
